Each molecule was assayed against AMPK (assay: AMPK activation, enzyme-linked immunosorbent assay). Conditions: Table 8, compounds of Table 1.
Assay type: biochemical
Protocol: Compounds of Table 1 were assayed for their ability to activate AMPK using an enzyme-linked immunosorbent assay.
Compounds of Table 2 were assayed for their ability to activate AMPK using an enzyme-linked immunosorbent assay.
Compounds of Table 3 were assayed for their ability to activate AMPK using an enzyme-linked immunosorbent assay.
Compounds of Table 4 were assayed for their ability to activate AMPK using an enzyme-linked immunosorbent assay.
Compounds of Table 5 were assayed for their ability to activate AMPK using an enzyme-linked immunosorbent assay.
Compounds of Table 6 were assayed for their ability to activate AMPK using an enzyme-linked immunosorbent assay.
Compounds of Table 7 were assayed for their ability to activate AMPK using an enzyme-linked immunosorbent assay.

EC50 [µM] | Structure (SMILES)
< 0.1 | O=C(NC1CCN(Cc2ccc(OC(F)(F)F)cc2)CC1)c1cc2cc(O[C@@H]3CCN(Cc4ccc(OC(F)(F)F)cc4)C[C@H]3F)ccc2o1 [Compound 1-173, 5-((3,4-trans)-3-fluoro-1-(4-(trifluoromethoxy)benzyl)piperidin-4-yloxy)-N-(1-(4-(trifluoromethoxy)benzyl)piperidin-4-yl)benzofuran-2-carboxamide]
0.1 to 0.5 | N#Cc1ccc(CN2CCC(Oc3ccc(S(=O)(=O)NC4CCN(Cc5ccncc5)CC4)cn3)CC2)cc1 [Compound 1-53, 6-(1-(4-cyanobenzyl)piperidin-4-yloxy)-N-(1-(pyridin-4-ylmethyl)piperidin-4-yl)pyridine-3-sulfonamide]
0.1 to 0.5 | N#Cc1ccc(CN2CCC(Oc3ccc4oc(C(=O)NC5CCN(Cc6ccccc6)CC5)cc4c3)CC2)cc1 [Compound 1-114, N-(1-benzylpiperidin-4-yl)-5-(1-(4-cyanobenzyl)piperidin-4-yloxy)benzofuran-2-carboxamide]

Same assay, conditions: Table 9, compounds of Table 2

EC50 [µM] | Structure (SMILES)
10 to 50 | N#Cc1ccc(CN2CCC(NC(=O)c3ccc4[nH]c5c(c4c3)CN(S(=O)(=O)c3cccnc3)CC5)CC2)cc1 [Compound 2-26, N-(1-(4-cyanobenzyl)piperidin-4-yl)-2-(pyridin-3-ylsulfonyl)-2,3,4,5-tetrahydro-1H-pyrido[4,3-b]indole-8-carboxamide]
0.5 to 1 | O=C(NC1CCN(Cc2ccc(C(F)(F)F)cc2)CC1)c1ccc2[nH]c3c(c2c1)CN(Cc1ccc(F)cc1)CC3 [Compound 2-10, N-(1-(4-trifluoromethylbenzyl)piperidin-4-yl)-2-(4-fluorobenzyl)-2,3,4,5-tetrahydro-1H-pyrido[4,3-b]indole-8-carboxamide]
10 to 50 | O=C(NC1CCN(C(=O)c2ccc(C(F)(F)F)cc2)CC1)c1ccc2[nH]c3c(c2c1)CN(c1ccc(F)cc1)CC3 [Compound 2-41, 2-(4-fluorophenyl)-N-(1-(4-(trifluoromethyl)benzoyl)piperidin-4-yl)-2,3,4,5-tetrahydro-1H-pyrido[4,3-b]indole-8-carboxamide]
10 to 50 | N#Cc1ccc(CN2CCC(NC(=O)c3ccc4[nH]c5c(c4c3)CN(Cc3ccc(C(N)=O)cc3)CC5)CC2)cc1 [Compound 2-44, 2-(4-carbamoylbenzyl)-N-(1-(4-cyanobenzyl)piperidin-4-yl)-2,3,4,5-tetrahydro-1H-pyrido[4,3-b]indole-8-carboxamide]
> 100 | CC(C)(C)OC(=O)N1CCC(NC(=O)c2ccc3[nH]c4c(c3c2)CN(Cc2ccc(C(N)=O)cc2)CC4)CC1 [Compound 2-43, tert-butyl 4-(2-(4-carbamoylbenzyl)-2,3,4,5-tetrahydro-1H-pyrido[4,3-b]indole-8-carboxamido)piperidine-1-carboxylate]
5 to 10 | O=C(NC1CCN(Cc2cccnc2)CC1)c1ccc2[nH]c3c(c2c1)CN(Cc1ccc(F)cc1)CC3 [Compound 2-8, 2-(4-fluorobenzyl)-N-(1-(pyridin-3-ylmethyl)piperidin-4-yl)-2,3,4,5-tetrahydro-1H-pyrido[4,3-b]indole-8-carboxamide]
1 to 5 | N#Cc1ccc(NC(=O)N2CCC(NC(=O)c3ccc4[nH]c5c(c4c3)CN(Cc3ccc(C(F)(F)F)cc3)CC5)CC2)cc1 [Compound 2-27, N-(1-(4-cyanophenylcarbamoyl)piperidin-4-yl)-2-(4-(trifluoromethyl)benzyl)-2,3,4,5-tetrahydro-1H-pyrido[4,3-b]indole-8-carboxamide]

Same assay, conditions: Table 10, compounds of Table 3

EC50 [µM] | Structure (SMILES)
< 0.1 | O=C(c1ccc(F)cc1)N1CC2CC1CN2C(=O)c1nc2ccc(OC3CCN(c4ccc(C(F)(F)F)cc4)CC3)cc2o1 (stereo not drawn) [Compound 3-13, (5-(4-fluorobenzoyl)-2,5-diazabicyclo[2.2.1]heptan-2-yl)(6-(1-(4-(trifluoromethyl)phenyl)piperidin-4-yloxy)benzo[d]oxazol-2-yl)methanone]

Same assay, conditions: Table 11, compounds of Table 4

EC50 [µM] | Structure (SMILES)
< 0.5 | N#Cc1ccc(CN2CCC(NC(=O)c3ccc(C(=O)N4CCN(Cc5ccc(C(F)(F)F)cc5)CC4)cn3)CC2)cc1 [Compound 4-3, N-(1-(4-cyanobenzyl)piperidin-4-yl)-5-(4-(4-(trifluoromethyl)benzyl)piperazine-1-carbonyl)picolinamide]

Same assay, conditions: Table 12, compounds of Table 5

Structure (SMILES) | EC50 [µM]
O=C(NC1CCN(Cc2ccccc2)CC1)c1ccc(OC2CCN(Cc3ccccc3)CC2)c(Cl)c1 [Compound 5-14, N-(1-benzylpiperidin-4-yl)-4-(1-benzylpiperidin-4-yloxy)-3-chlorobenzamide] | < 1
O=C(NC1CCN(Cc2ccccc2)CC1)c1ccc(OC2CCN(c3ccco3)CC2)c(Cl)c1 [Compound 5-11, N-(1-benzylpiperidin-4-yl)-3-chloro-4-(1-(furan-2-yl)piperidin-4-yloxy)benzamide] | 1 to 10
COc1ccc(CN2CCC(NC(=O)c3cccc(OC4CCN(Cc5cnn(-c6ccc(F)cc6)c5)CC4)c3)CC2)cc1 [Compound 5-111, 3-(1-((1-(4-fluorophenyl)-1H-pyrazol-4-yl)methyl)piperidin-4-yloxy)-N-(1-(4-methoxybenzyl)piperidin-4-yl)benzamide] | < 1

Next, values leading:

EC50 [µM] | Structure (SMILES)
< 1 | N#Cc1ccc(CN2CCC(NC(=O)c3cccc(OC4CCN(c5ccc(C#N)cc5)CC4)c3)CC2)cc1 [Compound 5-115, N-(1-(4-cyanobenzyl)piperidin-4-yl)-3-(1-(4-cyanophenyl)piperidin-4-yloxy)benzamide]
< 1 | O=C(NC1CCN(Cc2ccccc2)CC1)c1ccc(OC2CCN(c3ccc(C(F)(F)F)cc3)CC2)c(Cl)c1 [Compound 5-17]

Same assay, conditions: Table 13, compounds of Table 6

EC50 [µM] | Structure (SMILES)
1 to 10 | Cc1nnsc1C(=O)Nc1ccc2oc(C(=O)NC3CCN(Cc4ccc(C#N)cc4)CC3)cc2c1 [Compound 6-56, N-(2-(1-(4-cyanobenzyl)piperidin-4-ylcarbamoyl)benzofuran-5-yl)-4-methyl-1,2,3-thiadiazole-5-carboxamide]
0.1 to 1 | N#Cc1ccc(CN2CCC(NC(=O)c3cc4cc(NC(=O)C5CCN(Cc6ccc(C#N)cc6)CC5)ccc4o3)CC2)cc1 [Compound 6-49, l-(4-cyanobenzyl)-N-(2-(l-(4-cyanobenzyl)piperidin-4-ylcarbamoyl)benzofiiran-5-yl)piperidine-4-carbox amide]
< 0.1 | COc1ccc(CN2CCC(NC(=O)c3cc4cc(C(=O)N5CCN(Cc6ccc(S(=O)(=O)N(C)C)cc6)CC5)ccc4o3)CC2)cc1F [Compound 6-162]
< 0.1 | O=C(Nc1ccc(Oc2ccc(F)cc2)nc1)c1cc2cc(C(=O)N3CCC(Oc4ccc(C(F)(F)F)cc4)CC3)ccc2o1 [Compound 6-26, N-(6-(4-fluorophenoxy)pyridin-3-yl)-5-(4-(4-(trifluoromethyl)phenoxy)piperidine-1-carbonyl) benzofuran-2-carboxamide]
< 0.1 | COc1ccc(CN2CCC(NC(=O)c3cc4cc(C(=O)N5CC[C@H](Oc6ccc(S(C)(=O)=O)cc6)[C@@H](F)C5)ccc4o3)CC2)cc1 [Compound 6-114, 5-((3,4-trans)-3-fluoro-4-(4-(methylsulfonyl)phenoxy)piperidine-1-carbonyl)-N-(1-(4-methoxybenzyl)piperidin-4-yl) benzofuran-2-carboxamide]
< 0.1 | CS(=O)(=O)c1ccc(CN2CCN(C(=O)c3ccc4oc(C(=O)NC5CCN(Cc6ccc(C#N)c(F)c6)CC5)cc4c3)CC2)cc1 [Compound 6-145, N-(1-(4-cyano-3-fluorobenzyl)piperidin-4-yl)-5-(4-(4-(methylsulfonyl)benzyl)piperazine-1-carbonyl) benzofuran-2-carboxamide]

Same assay, conditions: Table 14, compounds of Table 7

EC50 [µM] | Structure (SMILES)
1 to 10 | N#Cc1ccc(CN2CCC(NC(=O)c3ccc(C(=O)N4CCC(Oc5ccc(S(=O)(=O)C6CC6)cc5)CC4)nc3)[C@H](F)C2)cc1 (stereo partly drawn) [Compound 7-73, N-((3,4-trans)-1-(4-cyanobenzyl)-3-fluoropiperidin-4-yl)-6-(4-(4-(cyclopropylsulfonyl)phenoxy)piperidine-1-carbonyl)nicotinamide]
< 1 | CS(=O)(=O)c1ccc(N2CCN(c3ccc(C(=O)NC4CCN(Cc5ccc(C#N)cc5)CC4)cn3)CC2)cc1 [Compound 7-77, N-(1-(4-cyanobenzyl)piperidin-4-yl)-6-(4-(4-(methylsulfonyl)phenyl)piperazin-1-yl)nicotinamide]
< 1 | N#Cc1ccc(CN2CCC(NC(=O)c3ccc(C(=O)N4CCC(C(=O)c5ccc(OC(F)(F)F)cc5)CC4)nc3)[C@H](F)C2)cc1 (stereo partly drawn) [Compound 7-71, N-((3,4-trans)-1-(4-cyanobenzyl)-3-fluoropiperidin-4-yl)-6-(4-(4-(trifluoromethoxy)benzoyl)piperidine-1-carbonyl) nicotinamide]
1 to 10 | COc1ccc(C(=O)C2CCN(C(=O)c3ccc(C(=O)NC4CCN(Cc5ccc(F)c(OC)c5)CC4(C)C)cn3)CC2)cc1 (stereo not drawn) [Compound 7-87, N-(1-(4-fluoro-3-methoxybenzyl)-3,3-dimethylpiperidin-4-yl)-6-(4-(4-methoxybenzoyl)piperidine-1-carbonyl)nicotinamide]
< 1 | N#Cc1ccc(CN2CCC(NC(=O)c3ccc(C(=O)N4CCC(C(=O)c5ccc(-n6cccn6)cc5)CC4)nc3)[C@H](F)C2)cc1 (stereo partly drawn) [Compound 7-68, 6-(4-(4-(lH-pyrazol-1-yl)benzoyl)piperidine-1-carbonyl)-N-((3,4-trans)-1-(4-cyanobenzyl)-3-fluoropiperidin-4-yl)nicotinamide]
< 1 | N#Cc1ccc(OC2CCN(C(=O)c3ccc(C(=O)Nc4ccc(Oc5ccc(S(F)(F)(F)(F)F)cc5)nc4)nc3)CC2)cc1 [Compound 7-5, 5-(4-(4-cyanophenoxy)piperidine-1-carbonyl)-N-(6-(4-(pentafluorosulfanyl)phenoxy)pyridin-3-yl)picolinamide]
1 to 10 | CS(=O)(=O)c1ccc(C(=O)C2CCN(C(=O)c3ccc(C(=O)NC4CCN(Cc5ccc(OC(F)(F)F)cc5)C[C@H]4F)cn3)CC2)cc1 (stereo partly drawn) [Compound 7-61, N-((3,4-trans)-3-fluoro-1-(4-(trifluoromethoxy)benzyl)piperidin-4-yl)-6-(4-(4-(methylsulfonyl)benzoyl)piperidine-1-carbonyl) nicotinamide]
